Laboratory results: patent US12473298B2, “Amide compounds, preparation method therefor, and use thereof in the medical field” (Shanghai Synergy Pharmaceutical Sciences Co., Ltd., priority 2019, dated 2025)
pIC50: −log10 of the molar value. Where two headings read alike, the source gives them in different places.

Assays:
wild-type EZH2 = wild-type EZH2 (Homo sapiens (Human), UniProt Q15910); assay: radiometric assay, activity to wild-type EZH2 of PRC2
Method: 25 μL of reaction solution was transferred to a scintillation plate, which was incubated at room temperature for 1 hour (h) and washed with deionized water and 0.1% Tween 20 for three times. A PerkinElmer liquid scintillation/luminescence counter was used to read the value, and GraphPad Prism 5 was used to calculate the median inhibitory concentration (IC50) of the compounds.

[1] = test system: human diffuse large B-cell lymphoma cells (Karpas 422 cell); assay: Karpas 422 cell proliferation, Calcein AM staining; assay type: cell-based; details: data of 14th day, read-out: Karpas422 Proliferation IC50 Nanomoles per Liter
Mutant type EZH2(Y641N) = Mutant type EZH2(Y641N) (Homo sapiens (Human), UniProt Q15910, Y641N); assay: AlphaLISA, mutant type PRC2 complex EZH2(Y641N); assay type: biochemical; details: read-out: Mutant type EZH2(Y641N) IC50 Nanomoles per Liter
Mutant type EZH2(Y641N), sequence (Q15910 whole entry Y641N): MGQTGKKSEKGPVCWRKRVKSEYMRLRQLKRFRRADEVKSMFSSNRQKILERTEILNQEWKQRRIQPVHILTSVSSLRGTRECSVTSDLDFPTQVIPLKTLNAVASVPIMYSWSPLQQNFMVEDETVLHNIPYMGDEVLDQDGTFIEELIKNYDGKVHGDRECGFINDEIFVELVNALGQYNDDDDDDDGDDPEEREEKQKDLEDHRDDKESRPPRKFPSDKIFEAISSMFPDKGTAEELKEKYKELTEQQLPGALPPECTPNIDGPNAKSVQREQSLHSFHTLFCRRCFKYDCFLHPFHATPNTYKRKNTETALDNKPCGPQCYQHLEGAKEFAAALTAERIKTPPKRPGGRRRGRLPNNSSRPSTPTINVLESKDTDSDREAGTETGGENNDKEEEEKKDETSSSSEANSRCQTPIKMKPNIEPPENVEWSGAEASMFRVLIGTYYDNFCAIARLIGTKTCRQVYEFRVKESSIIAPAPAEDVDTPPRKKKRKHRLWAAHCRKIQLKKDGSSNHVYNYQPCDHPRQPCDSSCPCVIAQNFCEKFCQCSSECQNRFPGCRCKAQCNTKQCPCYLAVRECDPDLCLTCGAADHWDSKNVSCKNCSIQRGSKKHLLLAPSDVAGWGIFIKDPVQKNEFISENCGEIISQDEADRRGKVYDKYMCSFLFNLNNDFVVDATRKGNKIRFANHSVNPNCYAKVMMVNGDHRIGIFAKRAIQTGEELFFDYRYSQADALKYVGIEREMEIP
Mutant type EZH2(Y641N), sequence (O75530 whole entry partner): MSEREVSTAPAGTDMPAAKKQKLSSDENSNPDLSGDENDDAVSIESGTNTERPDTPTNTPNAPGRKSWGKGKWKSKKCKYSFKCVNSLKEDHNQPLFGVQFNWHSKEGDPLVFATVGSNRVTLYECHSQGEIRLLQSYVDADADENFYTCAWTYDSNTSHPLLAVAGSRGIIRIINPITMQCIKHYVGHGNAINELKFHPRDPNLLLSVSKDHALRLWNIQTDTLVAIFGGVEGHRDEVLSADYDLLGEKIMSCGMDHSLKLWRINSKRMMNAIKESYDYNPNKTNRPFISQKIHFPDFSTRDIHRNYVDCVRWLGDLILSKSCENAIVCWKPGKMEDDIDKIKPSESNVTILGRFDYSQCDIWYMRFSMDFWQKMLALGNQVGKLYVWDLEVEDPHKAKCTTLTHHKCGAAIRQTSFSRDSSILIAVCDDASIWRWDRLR
Mutant type EZH2(Y641N), sequence (Q15022 whole entry partner): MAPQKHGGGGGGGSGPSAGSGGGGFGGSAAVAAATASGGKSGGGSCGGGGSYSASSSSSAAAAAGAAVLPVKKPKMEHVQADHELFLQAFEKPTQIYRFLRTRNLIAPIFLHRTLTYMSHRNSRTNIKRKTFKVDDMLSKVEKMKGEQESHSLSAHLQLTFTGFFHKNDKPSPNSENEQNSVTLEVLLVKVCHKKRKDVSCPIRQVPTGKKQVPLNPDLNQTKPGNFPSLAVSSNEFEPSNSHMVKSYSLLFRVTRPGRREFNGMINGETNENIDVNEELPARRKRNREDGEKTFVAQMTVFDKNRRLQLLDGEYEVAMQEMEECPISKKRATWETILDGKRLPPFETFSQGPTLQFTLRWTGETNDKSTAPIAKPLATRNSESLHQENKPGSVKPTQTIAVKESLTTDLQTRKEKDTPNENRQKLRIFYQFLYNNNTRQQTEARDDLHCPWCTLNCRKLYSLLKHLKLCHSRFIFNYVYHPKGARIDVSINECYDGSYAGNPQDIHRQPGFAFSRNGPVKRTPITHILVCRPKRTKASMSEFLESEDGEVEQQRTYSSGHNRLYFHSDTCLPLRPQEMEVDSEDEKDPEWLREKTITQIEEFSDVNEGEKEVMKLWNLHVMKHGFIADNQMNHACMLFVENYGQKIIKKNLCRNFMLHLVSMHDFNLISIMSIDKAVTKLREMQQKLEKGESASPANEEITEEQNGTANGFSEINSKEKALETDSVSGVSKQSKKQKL
Mutant type EZH2(Y641N), sequence (Q09028 whole entry partner): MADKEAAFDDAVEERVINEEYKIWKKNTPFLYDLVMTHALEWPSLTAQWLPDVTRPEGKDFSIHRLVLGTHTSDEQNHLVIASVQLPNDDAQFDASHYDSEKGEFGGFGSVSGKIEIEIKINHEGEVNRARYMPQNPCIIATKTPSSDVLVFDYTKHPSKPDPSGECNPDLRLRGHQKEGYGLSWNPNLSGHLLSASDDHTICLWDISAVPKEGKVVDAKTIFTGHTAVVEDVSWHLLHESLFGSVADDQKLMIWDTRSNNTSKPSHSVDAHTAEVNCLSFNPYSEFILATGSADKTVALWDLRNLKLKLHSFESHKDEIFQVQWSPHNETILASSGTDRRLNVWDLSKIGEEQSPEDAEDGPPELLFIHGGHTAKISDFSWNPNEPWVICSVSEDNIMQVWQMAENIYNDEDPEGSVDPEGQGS
Mutant type EZH2(Y641N), sequence (Q6ZN18 whole entry partner): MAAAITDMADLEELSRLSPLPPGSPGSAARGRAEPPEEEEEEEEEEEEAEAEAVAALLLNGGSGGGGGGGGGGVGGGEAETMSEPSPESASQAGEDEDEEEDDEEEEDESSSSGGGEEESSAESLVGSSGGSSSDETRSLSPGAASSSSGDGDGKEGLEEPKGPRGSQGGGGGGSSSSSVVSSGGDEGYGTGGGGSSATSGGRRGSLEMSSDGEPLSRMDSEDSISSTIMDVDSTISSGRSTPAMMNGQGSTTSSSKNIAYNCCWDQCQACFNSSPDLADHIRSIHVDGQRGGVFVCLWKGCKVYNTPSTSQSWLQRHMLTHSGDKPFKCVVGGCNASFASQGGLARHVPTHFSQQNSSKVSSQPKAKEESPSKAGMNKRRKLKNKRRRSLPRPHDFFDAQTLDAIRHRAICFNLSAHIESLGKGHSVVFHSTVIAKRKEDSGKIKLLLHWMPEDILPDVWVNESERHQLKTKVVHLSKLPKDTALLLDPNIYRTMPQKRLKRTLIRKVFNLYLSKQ

Mutant type EZH2(A677G) = Mutant type EZH2(A677G) (Homo sapiens (Human), UniProt Q15910, A677G); assay: AlphaLISA, mutant type PRC2 complex EZH2(A677G); assay type: biochemical; details: read-out: Mutant type EZH2(A677G) IC59 Nanomoles per Liter
Mutant type EZH2(A677G), sequence (Q15910 whole entry A677G): as the sequence (Q15910 whole entry Y641N) above, with N641Y, A677G counted along it
Mutant type EZH2(A677G), sequence (O75530 whole entry partner): as the sequence (O75530 whole entry partner) above
Mutant type EZH2(A677G), sequence (Q15022 whole entry partner): as the sequence (Q15022 whole entry partner) above
Mutant type EZH2(A677G), sequence (Q09028 whole entry partner): as the sequence (Q09028 whole entry partner) above
Mutant type EZH2(A677G), sequence (Q6ZN18 whole entry partner): as the sequence (Q6ZN18 whole entry partner) above

Mutant type EZH2(Y641F) = Mutant type EZH2(Y641F) (Homo sapiens (Human), UniProt Q15910, Y641F); assay: AlphaLISA, mutant type PRC2 complex EZH2(Y641F); assay type: biochemical; details: read-out: Mutant type EZH2(Y641F) IC50 Nanomoles per Liter
Mutant type EZH2(Y641F), sequence (Q15910 whole entry Y641F): as the sequence (Q15910 whole entry Y641N) above, with N641F counted along it
Mutant type EZH2(Y641F), sequence (O75530 whole entry partner): as the sequence (O75530 whole entry partner) above
Mutant type EZH2(Y641F), sequence (Q15022 whole entry partner): as the sequence (Q15022 whole entry partner) above
Mutant type EZH2(Y641F), sequence (Q09028 whole entry partner): as the sequence (Q09028 whole entry partner) above
Mutant type EZH2(Y641F), sequence (Q6ZN18 whole entry partner): as the sequence (Q6ZN18 whole entry partner) above

[2] = test system: human diffuse large cell lymphoma B lymphocytes (Pfeiffer cell); assay: Pfeiffer cell proliferation, Calcein AM staining; assay type: cell-based; details: data of 14th day, read-out: Pfeiffer Proliferation IC50 Nanomoles per Liter
From the text: The diffuse large cell lymphoma B lymphocytes (Pfeiffer cells) were collected and counted when growing well.

[3] = test system: human diffuse large cell lymphoma B lymphocytes (Pfeiffer cell); assay: Pharmacodynamic experiment, Pfeiffer transplanted tumor model in mice; assay type: in vivo, mice (beige SCID); details: intragastrically, once a day for 21 days; for inhibition in vivo at 100 mg/kg: Mus musculus, Pfeiffer, po, 504 h, read-out: inhibited tumor growth; for inhibited tumor growth: 100 mg/kg
From the text: Under sterile conditions, human diffuse large cell lymphoma B lymphocytes (Pfeiffer cell) in logarithmic growth stage were digested and mixed with Matrigel and transplanted subcutaneously on the right back of mice (beige SCID) with severe combined immunodeficiency disease.

[4] = Pharmacokinetic experiment in rats; assay type: in vivo, SD rats; details: for Area Curve (AUC, ng/mL · h) / Half life T1/2, h) / Blood Drug level (Cmax, ng/mL) / Bioavailability (P %) / AUC / Cmax / bioavailability: rats; for Bioavailability (P %) / bioavailability: oral 20 mg/kg vs intravenous 4 mg/kg; for AUC / Cmax / bioavailability: male, SD, rat, plasma; for AUC: read-out: Area Curve (AUC, ng/mL · h); for half-life: male, SD, rat, plasma; rats, Intravenous-Dose 4 mg/kg; read-out: Half life T1/2, h) (converted); for Cmax: read-out: Blood Drug level (Cmax, ng/mL); for bioavailability: read-out: Bioavailability (P %)
Method: A certain amount of compound was weighted and dissolved in 0.1% Tween under vortex and ultrasound, and 0.5% carboxymethyl cellulose sodium (CMC-NA) solution was added to form a uniform solution.

[5] = read-out: Wild-type EZH2 IC50 Nanomoles per Liter

wild-type EZH2, sequence (Q15910 whole entry): as the sequence (Q15910 whole entry Y641N) above, with N641Y counted along it
wild-type EZH2, sequence (O75530 whole entry partner): as the sequence (O75530 whole entry partner) above
wild-type EZH2, sequence (Q15022 whole entry partner): as the sequence (Q15022 whole entry partner) above

| Compound | pIC50 (wild-type EZH2; [5]) | pIC50 ([1]; Homo sapiens, KARPAS-422) | pIC50 (Mutant type EZH2(Y641N)) | pIC50 (Mutant type EZH2(A677G)) | pIC50 (Mutant type EZH2(Y641F)) | pIC50 ([2]; Homo sapiens, Pfeiffer) | AUC ([4]; Intravenous-Dose 4 mg/kg) | half-life [4] | AUC ([4]; Oral-Dose 20 mg/kg) | Cmax ([4]; Oral-Dose 20 mg/kg) | bioavailability [4] | inhibition in vivo at 100 mg/kg [3] | IC50 (Mutant type EZH2(A677G)) | other results |
| --- | --- | --- | --- | --- | --- | --- | --- | --- | --- | --- | --- | --- | --- | --- |
| CCN(c1cc(-c2ccc3c(c2)NCC32CCN(C)CC2)cc(C(=O)NCc2c(C)cc(C)[nH]c2=O)c1C)C1CCOCC1 [Example 7, N-((4,6-dimethyl-2-oxo-1,2-dihydropyridin-3-yl)methyl)-3-(ethyl(tetrahydro-2H-pyran-4-yl)amino)-2-methyl-5-(1′-methylspiro[dihydroindole-3,4′-piperidine]-6-yl)benzamide] | – | – | – | – | – | – | – | – | – | – | – | – | – | Area Curve (AUC, ng/mL · h) ([4]; Intravenous-Dose 4 mg/kg): 937.25 ng·h/mL; Half life T1/2, h) ([4]; Intravenous-Dose 4 mg/kg): 1.64 h; Area Curve (AUC, ng/mL · h) ([4]; Oral-Dose 20 mg/kg): 1435.87 ng·h/mL; Blood Drug level (Cmax, ng/mL) ([4]; Oral-Dose 20 mg/kg): 405.10 ng/mL; Bioavailability (P %) [4]: 30.64%; inhibited tumor growth [3]: 95% |
| CCN(c1cc(-c2ccc3c(c2)N(C)C(=O)C32CCNCC2)cc(C(=O)NCc2c(OC)cc(C)[nH]c2=O)c1C)C1CCOCC1 [Example 34, 3-(ethyl(tetrahydro-2H-pyran-4-yl)amino)-N-((4-methoxy-6-methyl-2-carbonyl-1,2-dihydropyridin-3-yl)methyl)-2-methyl-5-(1-methyl-2-carbonylspiro[dihydroindole-3,4′-piperidine]-6-yl)benzamide] | – | – | – | – | – | – | 966 ng·h/mL | 1.32 h | 1750 ng·h/mL | 594 ng/mL | 36.3% | 96% | – | – |
| CCN(c1cc(-c2cc3c(cc2F)C2(CCOCC2)C(=O)N3C)cc(C(=O)NCc2c(C)cc(C)[nH]c2=O)c1C)C1CCOCC1 [Example 12, N-((4,6-dimethyl-2-carbonyl-1,2-dihydropyridin-3-yl)methyl)-3-(ethyl(tetrahydro-2H-pyran-4-yl)amino)-5-(5-fluoro-1-methyl-2-carbonyl-2′,3′,5′,6′-tetrahydrospiro[dihydroindole-3,4′-pyran]-6-yl)-2-methylbenzamide] | – | 9.02 | – | – | – | 9.72 | 896 ng·h/mL | 1.37 h | 1510 ng·h/mL | 412 ng/mL | 33.7% | 99% | – | – |
| 3-(ethyl(tetrahydro-2H-pyran-4-yl)amino)-5-(6-fluoro-2,2′,3,3′,5′,6′-hexahydrospiro[indene-1,4′-pyran]-5-yl)-N-((4-methoxy-6-methyl-2-oxo-1,2-dihydropyridin-3-yl)methyl)-2-methylbenzamide 9-1 and 3-(ethyl(tetrahydro-2H-pyran-4-yl)amino)-5-(5-fluoro-2,2′,3,3′,5′,6′-hexahydrospiro[indene-1,4′-pyran]-6-yl)-N-((4-methoxy-6-methyl-2-oxo-1,2-dihydropyridin-3-yl)methyl)-2-methylbenzamide 9-2 [Example 9] | 9.15 | – | – | – | 9.28 | – | – | – | – | – | – | – | 0.37 nM | pIC50 [1]: 8.74; Area Curve (AUC, ng/mL · h) ([4]; Intravenous-Dose 4 mg/kg): 926.01 ng·h/mL; Half life T1/2, h) ([4]; Intravenous-Dose 4 mg/kg): 1.54 h; Area Curve (AUC, ng/mL · h) ([4]; Oral-Dose 20 mg/kg): 1522.36 ng·h/mL; Blood Drug level (Cmax, ng/mL) ([4]; Oral-Dose 20 mg/kg): 437.25 ng/mL; Bioavailability (P %) [4]: 32.88%; pIC50 [2]: 9.38; inhibited tumor growth [3]: 97% |
| CCN(c1cc(-c2ccc3c(c2)NCC32CCOCC2)cc(C(=O)NCc2c(OC)cc(C)[nH]c2=O)c1C)C1CCNCC1 [Example 5, 3-(ethyl(piperidin-4-yl)amino)-N-((4-methoxy-6-methyl-2-oxo-1,2-dihydropyridin-3-yl)methyl)-2-methyl-5-(2′,3′,5′,6′-tetrahydrospiro[indoline-3,4′-pyran]-6-yl)benzamide] | – | – | – | – | – | – | 912 ng·h/mL | 1.05 h | 1570 ng·h/mL | 453 ng/mL | 34.3% | 98% | – | – |

The next lines start with results.

| pIC50 (wild-type EZH2; [5]) | pIC50 ([1]; Homo sapiens, KARPAS-422) | pIC50 (Mutant type EZH2(Y641N)) | pIC50 (Mutant type EZH2(A677G)) | pIC50 (Mutant type EZH2(Y641F)) | pIC50 ([2]; Homo sapiens, Pfeiffer) | AUC ([4]; Intravenous-Dose 4 mg/kg) | half-life [4] | AUC ([4]; Oral-Dose 20 mg/kg) | Cmax ([4]; Oral-Dose 20 mg/kg) | bioavailability [4] | Compound | inhibition in vivo at 100 mg/kg [3] | IC50 (Mutant type EZH2(A677G)) | other results |
| --- | --- | --- | --- | --- | --- | --- | --- | --- | --- | --- | --- | --- | --- | --- |
| 8.74 | 8.32 | 9.42 | 9.04 | 8.83 | 8.37 | – | – | – | – | – | CCN(c1cc(-c2ccc3c(c2)C2(CCOCC2)C(=O)N3C)cc(C(=O)NCc2c(C)cc(C)[nH]c2=O)c1C)C1CCOCC1 [Example 83, N-((4,6-dimethyl-2-oxo-1,2-dihydropyridin-3-yl)methyl)-3-(ethyl(tetrahydro-2H-pyran-4-yl)amino)-2-methyl-5-(1-methyl-2-oxo-2′,3′,5′,6′-tetrahydrospiro[dihydroindole-3,4′-pyran]-5-yl)benzamide] | 98% | – | – |
| – | 9.01 | 9.52 | 9.38 | 9.24 | 9.19 | 933 ng·h/mL | 1.53 h | 1270 ng·h/mL | 438 ng/mL | 27.1% | CCN(c1cc(-c2ccc3c(c2)N(C(C)C(C)C)CC32CCOCC2)c(Cl)c(C(=O)NCc2c(C)cc(C)[nH]c2=O)c1C)C1CCOCC1 (centres unmarked) [Example 55, 2-chloro-N-((4,6-dimethyl-2-oxo-1,2-dihydropyridin-3-yl)methyl)-5-(ethyl(tetrahydro-2H-pyran-4-yl)amino)-6-methyl-3-(1-(3-methylbutyl-2-yl)-2′,3′,5′,6′-tetrahydrospiro[dihydroindole-3,4′-pyran]-6-yl)benzamide] | – | – | pIC50 (wild-type EZH2): 9.20 |
| 8.95 | 8.58 | 9.40 | – | 9.24 | 8.86 | – | – | – | – | – | CCN(c1cc(-c2ccc3c(c2)NC(=O)C32CCC(C)(O)CC2)cc(C(=O)NCc2c(C)cc(C)[nH]c2=O)c1C)C1CCOCC1 (centres unmarked) [Example 93, N-((4,6-dimethyl-2-oxo-1,2-dihydropyridin-3-yl)methyl)-3-(ethyl(tetrahydro-2H-pyran-4-yl)amino)-5-(4-hydroxy-4-methyl-2′-oxospiro[cyclohexane-1,3′-dihydroindole]-6′-yl)-2-methylbenzamide] | 94% | – | – |
| 9.09 | 8.67 | – | 9.20 | 9.14 | 8.87 | 966 ng·h/mL | 1.12 h | 1610 ng·h/mL | 456 ng/mL | 53.3% | CCN(c1cc(-c2ccc3c(c2)C2(CCOCC2)C(=O)N3C)cc(C(=O)NCc2c(OC)cc(C)[nH]c2=O)c1C)C1CCN(CC(F)(F)F)CC1 [Example 109, 3-(Ethyl(1-(2,2,2-trifluoroethyl)piperidin-4-yl)amino)-N-((4-methoxy-6-methyl-2-oxo-1,2-dihydropyridin-3-yl)methyl)-2-methyl-5-(1-methyl-2-oxo-2′,3′,5′,6′-tetrahydrospiro[dihydroindole-3,4′-pyran]-5-yl)benzamide] | 101% | – | – |
| 9.04 | 8.09 | – | 9.17 | – | 8.15 | – | – | – | – | – | CCN(c1cc(-c2ccc3c(c2)C2(CCOCC2)C(=O)N3)cc(C(=O)NCc2c(C)cc(C)[nH]c2=O)c1C)C1CCOCC1 [Example 77, N-((4,6-dimethyl-2-oxo-1,2-dihydropyridin-3-yl)methyl)-3-(ethyl(tetrahydro-2H-pyran-4-yl)amino)-2-methyl-5-(2-oxo-2′,3′,5′,6′-tetrahydrospiro[dihydroindole-3,4′-pyran]-5-yl)benzamide] | 100% | – | – |
